Data from patent US7098307B2, “Neo-tryptophan” (Mayo Foundation for Medical Education and Research, priority 1998, dated 2006).
Read-outs that look alike come from different tables or passages of the source. Blank lines part the entries; values can stand above or below the compound they belong to. Numbered stars: 1 amine (or outer) side, 2 acyl side, 3 side chain; on linkers, the order of the positions; unused ones are H or OH. Square brackets hold non-standard residues; d marks the D form. Ends that are not written are not given here. Peptide text beside a SMILES is read from it. Ala(indol-4-yl) = N[C@@H](Cc1cccc2[nH]ccc12)C(=O)O; X1 = O=C([C@@H](Cc1cccc2[nH]ccc12)N[*:1])[*:2]; NMeR = CN[C@@H](CCCNC(=N)N)C(=O)O; Tle = CC(C)(C)[C@H](N)C(=O)O; dOrn = NCCC[C@@H](N)C(=O)O; Dab = NCC[C@H](N)C(=O)O

Experiments:
human NTR1 = biological target: T1, human NTR1 (Homo sapiens, UniProt P30989); assay: Competition binding with [3H]NT, membranes of CHO-K1 cells transfected with human NTR1
T1 construct: expressed in transfected cells; host or cells: CHO-K1
Procedure: (§1) CHO-K1 cells were stably transfected with nucleic acid encoding either the human NTR1 or the rat NTR1, and cultured in 150 mm petri plates with 35 mL of Dulbecco-modified Eagle's medium containing 100 μM minimal essential medium nonessential amino acids (GIBCO) supplemented with 5% (v/v) FetalClone II bovine serum product (Hyclone Labs, Logan, Utah). CHO cells (subculture 9–19) were harvested at confluency. Briefly, the medium from each plate was removed by aspiration, and the cells washed with 6 mL of 50 mM Tris-HCl (pH 7.4) and resuspended in 5–10 mL of Tris-HCl by scraping the cells with a rubber spatula. The resuspended cells were placed into a centrifuge tube and collected by centrifugation at 300× g for five minutes at 4° C. in a GPR centrifuge (Beckman Instruments, Fullerton, Calif.). The cellular pellet (in 50 mM Tris-HCl, 1 mM EDTA, pH 7.4) was stored at […] until radioligand binding was performed.
(§2) The supernatant was decanted and discarded, and the cellular pellet was resuspended in 2 mL of Tris-HCl, 1 mM EDTA (pH 7.4) followed by homogenization with a Brinkmann Polytron at setting 6 for ten seconds. Centrifugation was repeated as above and the supernatant was decanted and discarded. The resulting final cellular pellet was resuspended in 50 mM Tris-HCl, lmM EDTA, 0.1% bovine serum albumin, and 0.2 mM bacitracin.
(§3) Incubation was at 20° C. for 30 minutes. Each reaction was terminated by addition of cold 0.9% NaCl (5×1.5 mL) followed by rapid filtration through a GF/B filter strip that had been pretreated with 0.2% polyethylenimine.

[1] = Catalepsy bar test in rats; assay type: in vivo, rat
Procedure: The following experiments were performed to assess the ability of NT69L to cause and influence catalepsy. Male Sprague-Dawley rats (150–250 g) or CD-1 mice (24–26 g) were housed in a temperature-controlled room in groups of five with free access to food and water. The animals were kept on a 12 hour light/dark cycle, and all tests were performed during the light cycle. […] Thirty minutes after injection, the animals were tested for catalepsy. For rats, the test involved simply placing the animal's fore paws on a suspended metal bar 10 mm in diameter, 11 cm above the counter. The time elapsed until the animal's fore paws touch the counter was recorded. […] The cut-off time was 20 seconds, and each animal was tested three times for each time point.

5HT2A receptor = 5HT2A receptor (Homo sapiens, UniProt P28223); assay: Competitive binding with [3H]ketanserin, human brain tissue; details: for competition with labeled ketanserin for binding at the 5HT2A receptor: human brain tissue
[2] = Degradation in human plasma (HPLC peak area); assay type: in vitro ADME; details: for half-life at 0.5 mg/mL: human
Source text: (§4) For the degradation studies, data were plotted in linear form as a semi-log plot with SigmaPlot for Windows Version 4.00. Linear regression on these plots provided the parameters used to calculate the half-time (t1/2) for degradation of each polypeptide. The correlation coefficient (R) for the linear regression was taken as a measure of the goodness-of-fit.

[3] = Hot plate test (antinociception, % MPE) in rats; details: for peak % MPE value: 18 nmol injected into the PAG, at 30 minutes; for induction of antinociception (hot plate): intraperitoneal administration (NT64L 1 mg/kg); for Peak % MPE / time of Peak % MPE: rats
[4] = Body temperature (hypothermia) in rats; details: for peak body temperature reduction: 18 nmol injected into the PAG, at 30 minutes; for induction of hypothermia: intraperitoneal administration (NT64L 1 mg/kg); for Peak BT change / time of Peak BT change: rats
rat NTR1 = biological target: T2, rat NTR1 (Rattus norvegicus, UniProt P20789); assay: Competition binding with [3H]NT, membranes of CHO-K1 cells transfected with rat NTR1
T2 construct: expressed in transfected cells; host or cells: CHO-K1
Procedure: as §1, §2, §3

[5] = Degradation in rat plasma (HPLC peak area); assay type: in vitro ADME
Source text: as §4

[6] = Degradation in rat intestinal preparation; assay type: in vitro ADME; details: pH 7.4, 37° C., read-out: half-time, Rat Intestinal Preparation (converted)
Procedure: For intestinal preparations, rats were sacrificed by decapitation, and the small intestines removed. The tissue was washed with ice-cold PBS (10 mM, pH 7.4). About […] of intestinal tissue was added to about 10 mL of PBS and homogenized using a Brinkman polytron homogenizer (setting 6). After homogenization, 10 mL of PBS was added to 10 mL of the intestinal homogenate. […] The supernatant was removed and stored at −20° C. until testing. Immediately before incubation with the polypeptide, the intestinal preparation was filtered through a 0.2 μm filter. Testing procedures were similar to those for the plasma tests.
as §4

[7] = CHO cells, read-out: Kd hNTR (Table VII)
[8] = 25% plasma, 37° C., 0.5 mg/mL polypeptide, read-out: half-time, Plasma Human (converted)
[9] = 0.5 mg/kg intraperitoneal (footnote)

Compound: CN1CCN(C2=Nc3cc(Cl)ccc3Nc3ccccc32)CC1 [Clozapine, reference compound]
- Kd (human NTR1; [7]): > 100000 nM
- catalepsy ([1]; 20 mg/kg ip): did not cause catalepsy

Compound: O=C(CCCN1CCC(O)(c2ccc(Cl)cc2)CC1)c1ccc(F)cc1 [Haloperidol, reference compound]
- catalepsy ([1]; 1 mg/kg ip): profound catalepsy
- ED50 at 30 min ([1]; male, Sprague-Dawley, rat, in vivo, ip, at 30 minutes, read-out: ED50 haloperidol-induced catalepsy): 0.13 mg/kg
- ED50 at 60 min ([1]; male, Sprague-Dawley, rat, in vivo, ip, at 60 minutes, read-out: ED50 haloperidol-induced catalepsy): 0.26 mg/kg
- ED50 at 180 min ([1]; male, Sprague-Dawley, rat, in vivo, ip, at 180 minutes, read-out: ED50 haloperidol-induced catalepsy): 0.31 mg/kg

Compound: N[C@@H](Cc1cccc2[nH]ccc12)C(=O)O [L-neo-Trp, (2S)-2-amino-3-(1H-4-indolyl)propanoic acid]
- binding to human NT receptors from CHO cells (human NTR1): does not bind
- Kd (human NTR1; [7]): > 100000 nM
- Kd (5HT2A receptor): > 100000 nM
- competition with labeled ketanserin for binding at the 5HT2A receptor (5HT2A receptor): did not compete

Compound: CC[C@H](C)[C@H](NC(=O)[C@H](Cc1cccc2[nH]ccc12)NC(=O)[C@@H]1CCCN1C(=O)[C@H](CCCNC(=N)N)NC(=O)[C@@H](N)CCCNC(=N)N)C(=O)N[C@@H](CC(C)C)C(=O)O [NT64L]
- half-life at 0.5 mg/mL [2, 8]: 1.4 h
- peak % MPE value [3]: 76%
- induction of antinociception (hot plate) [3]: did not induce
- Kd (5HT2A receptor): 6600 nM
- competition with labeled ketanserin for binding at the 5HT2A receptor (5HT2A receptor): found to compete
- peak body temperature reduction [4]: 2.1 °C
- induction of hypothermia [4]: did not induce

Compound: CC(C)C[C@H](NC(=O)[C@@H](NC(=O)[C@H](Cc1cccc2[nH]ccc12)NC(=O)[C@@H]1CCCN1C(=O)[C@H](CCCNC(=N)N)NC(=O)[C@@H](N)CCCNC(=N)N)C(C)(C)C)C(=O)O [NT65L] (H-RRP[Ala(indol-4-yl)][Tle]L-OH; N-terminus and C-terminus assumed)
- reduction in binding affinity compared to NT64L (human NTR1; NT receptor binding): 3 fold
- half-life at 0.5 mg/mL ([2]; plasma): 1.1 h

Compound: CC(C)C[C@H](NC(=O)[C@@H](NC(=O)[C@@H](Cc1cccc2[nH]ccc12)NC(=O)[C@@H]1CCCN1C(=O)[C@H](CCCNC(=N)N)NC(=O)[C@H](N)CCCCN)C(C)(C)C)C(=O)O [NT66D] (H-[dK]RP[X1][Tle]L-OH; N-terminus and C-terminus assumed)
- Kd (human NTR1): 210 ± 20 nM
- Peak % MPE [3, 9]: 58% @
- time of Peak % MPE [3, 9]: 30 min
- induction of antinociception (hot plate) [3]: did induce
- Peak BT change [4, 9]: −1.0 @ ° C.
- time of Peak BT change [4, 9]: 30 min
- induction of hypothermia [4]: did induce
- Kd (rat NTR1): 77 ± 9 nM

Compound: CN[C@@H](CCCNC(=N)N)C(=O)N[C@@H](CCN)C(=O)N1CCC[C@H]1C(=O)N[C@@H](Cc1cccc2[nH]ccc12)C(=O)N[C@H](C(=O)N[C@@H](CC(C)C)C(=O)O)C(C)(C)C [NT71] (H-[NMeR][Dab]P[Ala(indol-4-yl)][Tle]L-OH; N-terminus and C-terminus assumed)
- half-life at 0.5 mg/mL ([5]; 25% plasma, 37° C., 0.5 mg/mL polypeptide, read-out: half-time, Plasma Rat (converted)): 260 h
- half-life [6]: 5.1 h
- Peak % MPE ([3]; 1 mg/kg intraperitoneal): 70% @
- time of Peak % MPE ([3]; 1 mg/kg intraperitoneal): 60 min
- Peak % MPE ([3]; 5 mg/kg intraperitoneal): 79% @
- time of Peak % MPE ([3]; 5 mg/kg intraperitoneal): 180 min
- induction of antinociception (hot plate) [3]: did induce
- Peak BT change ([4]; 1 mg/kg intraperitoneal): −2.0 @ ° C.
- time of Peak BT change ([4]; 1 mg/kg intraperitoneal): 40 min
- Peak BT change ([4]; 5 mg/kg intraperitoneal): −2.4 @ ° C.
- time of Peak BT change ([4]; 5 mg/kg intraperitoneal): 90 min
- induction of hypothermia [4]: did induce

Compound: CC(C)C[C@H](NC(=O)[C@@H](NC(=O)[C@H](Cc1cccc2[nH]ccc12)NC(=O)[C@@H]1CCCN1C(=O)[C@H](N)CCCCN)C(C)(C)C)C(=O)O [NT72] (H-[dK]P[Ala(indol-4-yl)][Tle]L-OH; N-terminus and C-terminus assumed)
- half-life [6]: 54 h
- Kd (human NTR1): 640 nM
- half-life at 0.5 mg/mL [2, 8]: 3000 h
- Peak % MPE ([3]; 5 mg/kg intraperitoneal): 100% @
- time of Peak % MPE ([3]; 5 mg/kg intraperitoneal): 120 min
- induction of antinociception (hot plate) [3]: did induce
- Peak BT change ([4]; 5 mg/kg intraperitoneal): −2.8 @ ° C.
- time of Peak BT change ([4]; 5 mg/kg intraperitoneal): 180 min
- induction of hypothermia [4]: did induce
- Kd (rat NTR1): 270 ± 30 nM

Compound: CC[C@H](C)[C@H](NC(=O)[C@H](Cc1cccc2[nH]ccc12)NC(=O)[C@@H]1CCCN1C(=O)[C@H](N)CCCCN)C(=O)N[C@@H](CC(C)C)C(=O)O [NT73] (H-[dK]P[Ala(indol-4-yl)]IL-OH; N-terminus and C-terminus assumed)
- half-life [6]: 0.83 h
- Kd (human NTR1): 45 ± 3 nM
- half-life at 0.5 mg/mL [2, 8]: 300 h
- Peak % MPE ([3]; 5 mg/kg intraperitoneal): 40% @
- time of Peak % MPE ([3]; 5 mg/kg intraperitoneal): 120 min
- induction of antinociception (hot plate) [3]: did induce
- Peak BT change ([4]; 5 mg/kg intraperitoneal): −0.9 @ ° C.
- time of Peak BT change ([4]; 5 mg/kg intraperitoneal): 90 min
- induction of hypothermia [4]: did induce
- Kd (rat NTR1): 32 ± 6 nM

Compound: NCCc1c[nH]c2ccc(O)cc12 [Serotonin, reference compound]
- Kd (human NTR1; [7]): > 100000 nM
- Kd (rat NTR1; CHO cells, read-out: Kd rNTR (Table VII)): > 100000 nM

Compound: NT24″27″: L-Arg-D-Orn-L-Pro-L-Tyr-L-Ile-L-Leu (R[dOrn]PYIL) [reference compound]
- peak % MPE value [3]: 20%
- induction of antinociception (hot plate) [3]: did not induce
- peak body temperature reduction [4]: 1.1 °C
- induction of hypothermia [4]: did not induce

Further lines, results first:

- half-time, Plasma Human [2]: about 0.85 hours
- half-life at 0.5 mg/mL ([2]; plasma): 0.85 h
- competition with labeled ketanserin for binding at the 5HT2A receptor (5HT2A receptor): found to compete
Compound: CC[C@H](C)[C@H](NC(=O)[C@H](Cc1ccc(O)cc1)NC(=O)[C@@H]1CCCN1C(=O)[C@H](CCCNC(=N)N)NC(=O)[C@H](N)CCCCN)C(=O)N[C@@H](CC(C)C)C(=O)O [NT2, reference compound] (H-[dK]RPYIL-OH; N-terminus and C-terminus assumed)

- half-life at 0.5 mg/mL ([5]; plasma): 110 h
Compound: CC(C)C[C@H](NC(=O)[C@@H](NC(=O)[C@H](Cc1cccc2[nH]ccc12)NC(=O)[C@@H]1CCCN1C(=O)[C@@H](N)CCN)C(C)(C)C)C(=O)O [NT74] (H-[Dab]P[Ala(indol-4-yl)][Tle]L-OH; N-terminus and C-terminus assumed)

- half-life at 0.5 mg/mL ([5]; plasma): 1.6 h
- half-life [6]: 0.27 h
Compound: CC[C@H](C)[C@H](NC(=O)[C@H](Cc1cccc2[nH]ccc12)NC(=O)[C@@H]1CCCN1C(=O)[C@@H](N)CCN)C(=O)N[C@@H](CC(C)C)C(=O)O [NT75] (H-[Dab]P[Ala(indol-4-yl)]IL-OH; N-terminus and C-terminus assumed)
